Assay results reported in publication PMC6353801, “Enhanced Anti-diabetic Effect of Berberine Combined With Timosaponin B2 in Goto-Kakizaki Rats, Associated With Increased Variety and Exposure of Effective Substances Through Intestinal Absorption” (Frontiers in Pharmacology, 2019).
Where “and” joins values, the source holds several entries; their conditions need not be identical. Identical values can stand only once.

Legend:
[1] = PK in systemic plasma of Wistar rats (after hepatic clearance) and liver extraction ratio; details: for ERliver (liver extraction ratio): (AUCpor−AUCsys)/AUCpor; for increase in AUC on co-administration vs single treatment / Tmax / AUC / Cmax / half-life / AUC ratio between M1 and BBR: systemic plasma; for Tmax: n = 5
[2] = Transport in Caco-2 cells; type: in vitro ADME, human; details: human
Procedure: The culture medium was changed every other day for the first 7 days and then daily for the next 14 days. […] Prior to the transport experiments, the cell monolayers were washed three times with HBSS at 37°C. […] At the same time, the corresponding opposite side was filled with medium as the receiving chamber. After incubation for 30, 60, 90, and 120 min, 250-μl aliquots of the medium was taken from the receiving chamber at each time point, and prepared for analysis by HPLC–MS/MS. […] where (ΔQ/Δt) is the linear slope of the drug concentration in the receptor chamber over time, A represents the surface area of the membrane (1.12 cm^2), and C0 is the initial concentration of drug in the donor chamber. The efflux ratio (ERpermeability) for BL to AP and AP to BL transport was defined by the following equation: […] where Papp (BL–AP) and Papp (AP–BL) are the apparent permeability of drugs from the basolateral (BL) to apical (AP) and AP to BL sides of the monolayer, respectively.

[3] = Liver distribution in Wistar rats; details: for increase in AUC on co-administration vs single treatment / increase in Cmax on co-administration vs single treatment / AUC ± SE / Cmax / Tmax / exposure (AUC) of metabolite as share of the exposure of BBR: Wistar rats; for increase in AUC on co-administration vs single treatment / increase in Cmax on co-administration vs single treatment / AUC ± SE / Cmax / half-life / Tmax / exposure (AUC) of metabolite as share of the exposure of BBR: liver; for AUC ± SE / Cmax / half-life / Tmax: n = 5; for Cmax / half-life / Tmax: male, Wistar, rat, po; for Cmax: Cmax ± SE; for half-life: T1/2, Wistar rats
[4] = PK in portal vein plasma of Wistar rats (before hepatic clearance); details: for AUC / Cmax / Tmax / half-life: male, Wistar, rat, po
[5] = PK in systemic plasma of GK rats after repeated oral administration (day 35); type: in vivo, rat; details: GK rats, systemic plasma; for increase in AUC on combination vs single treatment / increase in Cmax on combination vs single treatment: day 35; for Cmax / half-life / Tmax / AUC: male, GK, rat, po, mean ± SE, n = 8; for Cmax / half-life / Tmax: plasma; for half-life: read-out: T1/2 (converted); for Tmax: read-out: Tmax; for AUC: read-out: AUC
Procedure: Analyses were performed on a Shimadzu LCMS-8030 triple quadrupole system (Shimadzu Corp., Japan) equipped with an electrospray ionization source. Data processing was performed using Shimadzu LC–MS LabSolutions (version 5.42 SP4, Shimadzu, Japan). Chromatographic separation was carried out on a Waters CORTECS C18+ column (100 mm × 2.1 mm, 2.7 μm, Ireland) with a security guard C18+ column (5 mm × 2.1 mm, 2.7 μm, Ireland). […] The gradient elution was 85% B from 0 to 2.5 min, 85% B–83% B from 2.5 to 3.0 min, 83% B from 3.0 to 6.0 min, 83% B–40% B from 6.0 to 6.5 min, 40% B from 6.5 to 7.0 min, 40% B–85% B from 7.0 to 7.2 min, and 85% B from 7.2 to 12 min. […] The optimized precursor-to-product ion pairs (collision energy) were in the positive mode as follows: m/z 579.20–255.15 (28 V) for TB-2 (at 4.1 min) and timosaponin A3 (at 6.1 min) and 271.50–154.70 (25 V) for tolbutamide (IS, at 5.8 min). […] If the concentrations of the compounds were over the linear range, the relevant samples were diluted with blank matrix by a factor of 10. […] Four-week-old male GK rats were fed a high-fat diet, and age-matched non-diabetic Wistar rats were fed standard chow as the control group. Under these dietary conditions, blood glucose was estimated each week for 7 weeks in 12-h fasted rats using a portable glucometer (One Touch Sure Step Meter, Johnson & Johnson, United States) by drawing the blood from the tail vein. GK rats with fasting blood glucose levels (FBG) above 16.7 mM were considered as diabetic rats, and only uniformly diabetic rats were used in this study. […] All the drugs were suspended in 0.5% carboxymethylcellulose sodium (CMC-Na) solution for oral gavage (10 ml/kg) once per day (at 9:00) for 6 weeks. Simultaneously, the Wistar and vehicle groups received vehicle over the treatment period. Food consumption and body weight were measured every week throughout the experimental periods. Non-fasting blood glucose (NFBG) levels were determined by collecting blood samples from the tail vein (at 9:00), and FBG levels were determined after a 6-h fast (at 15:00) on days 0, 7, 14, 21, and 42. On day 28, an oral glucose tolerance test (OGTT) was performed after an overnight fast. […] On day 42, the rats were anesthetized with urethane (1.4 g/kg, dissolved in saline) after an overnight fast and were sacrificed to collect the liver, kidney, heart, and spleen. The organs were weighed after washing with saline and drying to calculate the organ coefficient, namely, the ratio between the weight of organs and the body in each rat. The liver samples were diluted with 3 volumes (0.5 g/1.5 ml) of saline and homogenized. The liver homogenates and plasma samples (100 μl) were precipitated with three volumes of acetonitrile (containing 10 μg/ml tolbutamide). […] Then, 100 μl of the original mobile phase was added, and the samples were vortexed for 5 min and centrifuged at 13,000 rpm at 4°C for 10 min. Finally, the supernatant was used for HPLC–QQQ–MS/MS analysis. A non-compartmental analysis was performed using WinNonlin software (Pharsight 6.2, Raleigh, NC, United States) to calculate the PK parameters. The significance of PK parameters in normal rats, generated by the sparse method in WinNonlin, was assessed with Welch’s unequal variances t-test. The significance of the other results was assessed using two-tailed Student’s t-tests. Statistical significance was defined as P < 0.05.

[6] = Wistar rats, oral BBR 66.7 mg/kg alone
[7] = Wistar rats, oral BBR+TB-2 (100 mg/kg)
[8] = Wistar rats, TB-2+BBR treatments
[9] = male, Wistar, rat, plasma, po, 66.7 mg/kg, Tmax, Wistar rats, single oral BBR 66.7 mg/kg alone
[10] = male, Wistar, rat, po, 66.7 mg/kg
[11] = male, Wistar, rat, po, 100 mg/kg
[12] = male, Wistar, rat, po, 100 mg/kg, Tmax, Wistar rats, single oral BBR+TB-2 (100 mg/kg)
[13] = Caco-2, no inhibitor, digoxin 10 μM, TB-2 5 μM, BBR 10 μM, n = 3
[14] = single oral BBR 66.7 mg/kg alone
[15] = single oral BBR+TB-2 (66.7+33.3 mg/kg)
[16] = 33.3 mg/kg, single oral BBR+TB-2 (66.7+33.3 mg/kg)
[17] = 66.7 mg/kg, single oral BBR 66.7 mg/kg alone
[18] = 33.3 mg/kg, day 35, oral BBR+TB-2 (66.7+33.3 mg/kg)
[19] = 66.7 mg/kg, day 35, oral BBR 66.7 mg/kg alone

SMILES: COc1ccc2cc3[n+](cc2c1OC)CCc1cc2c(cc1-3)OCO2 [BBR, berberine]
- ERliver (liver extraction ratio) [1, 6]: 87.3%
- ERliver (liver extraction ratio) [1, 7]: 90.0%
- AUC in portal vein plasma, fold higher than in systemic plasma ([1]; Wistar rats, BBR treatments): 6.9 fold
- AUC in portal vein plasma, fold higher than in systemic plasma [1, 8]: 9.1 fold
- AUC in portal vein plasma, fold higher than in systemic plasma (discussion) ([1]; Wistar rats, single or combination treatments): approximately 10 fold
- increase in AUC on co-administration vs single treatment ([1]; Wistar rats): didn’t increase
- Tmax ([1]; Wistar rats, single oral BBR 66.7 mg/kg alone): 0.2 h
- Tmax [1, 9]: 0.167 h
- AUC [1, 10]: 25.1 ± 4.1 ng·h/mL
- Cmax [1, 10]: 11.1 ± 3.4 ng/mL
- half-life [1, 10]: 1.9 h
- AUC [1, 11]: 42.1 ± 11.7 ng·h/mL
- Cmax [1, 11]: 10.8 ± 3.9 ng/mL
- half-life [1, 11]: 2.3 h
- Tmax [1, 12]: 2 h
- efflux ratio at 120 min ([2]; Caco-2, Caco-2, no inhibitor, Papp (BL−AP)/Papp (AP−BL), read-out: ERpermeability (efflux ratio)): 71.4
- Papp A→B at 120 min [2, 13]: 0.038 ± 0.011 ×10⁻⁶ cm/s
- Papp B→A at 120 min [2, 13]: 2.71 ± 0.355 ×10⁻⁶ cm/s
- increase in AUC on co-administration vs single treatment [3]: didn’t elicit statistical significance
- increase in Cmax on co-administration vs single treatment [3]: 136%
- AUC ± SE [3, 14]: 3255.1 ± 247.5 h ∗ ng/g
- AUC ± SE [3, 15]: 4600.3 ± 645.1 h ∗ ng/g
- Cmax [3, 16]: 1880 ± 418 ng/g
- half-life [3, 16]: 6.9 h
- Tmax [3, 16]: 2 h
- Cmax [3, 17]: 795 ± 157 ng/g
- half-life [3, 17]: 14.8 h
- Tmax [3, 17]: 2 h
- improvement of levels on co-administration ([3]; normal rats, in the plasma and liver): 41–114%
- increase in AUC on co-administration vs single treatment ([4]; Wistar rats): 114%
- AUC ([4]; 66.7 mg/kg): 198 ± 22.2 ng·h/mL
- Cmax ([4]; 66.7 mg/kg): 63.1 ± 18.5 ng/mL
- Tmax ([4]; 66.7 mg/kg): 2 h
- half-life ([4]; 66.7 mg/kg): 9.8 h
- AUC ([4]; 100 mg/kg): 424 ± 60.5 ng·h/mL
- Cmax ([4]; 100 mg/kg): 145 ± 50.3 ng/mL
- Tmax ([4]; 100 mg/kg): 2 h
- half-life ([4]; 100 mg/kg): 10.5 h
- increase in AUC on combination vs single treatment [5]: 107%
- increase in Cmax on combination vs single treatment [5]: 695%
- Cmax [5, 18]: 42.2 ± 17.4 ng/mL
- half-life [5, 18]: 9.3 ± 2.5 h
- Tmax [5, 18]: 0.9 ± 0.1 h
- Cmax [5, 19]: 5.3 ± 0.4 ng/mL
- half-life [5, 19]: 28.1 ± 11.7 h
- Tmax [5, 19]: 4.6 ± 1.5 h
- AUC [5, 18]: 155 ± 59.7 ng·h/mL
- AUC [5, 19]: 74.8 ± 3.5 ng·h/mL

SMILES: COc1ccc2cc3[n+](cc2c1O)CCc1cc2c(cc1-3)OCO2 [M1, Berberrubine]
- ERliver (liver extraction ratio) [1, 6]: 81.9%
- ERliver (liver extraction ratio) [1, 7]: 81.3%
- AUC in portal vein plasma, fold higher than in systemic plasma ([1]; Wistar rats, BBR treatments): approximately fivefold
- AUC in portal vein plasma, fold higher than in systemic plasma [1, 8]: approximately fivefold
- increase in AUC on co-administration vs single treatment ([1]; Wistar rats): 95%
- AUC ratio between M1 and BBR ([1]; Wistar rats, BBR treatments): 40.2%
- AUC ratio between M1 and BBR [1, 8]: 46.8%
- Tmax [1, 9]: 6 h
- AUC [1, 10]: 10.1 ± 0.6 ng·h/mL
- Cmax [1, 10]: 1 ± 0.2 ng/mL
- half-life [1, 10]: 5.8 h
- AUC [1, 11]: 19.7 ± 2.9 ng·h/mL
- Cmax [1, 11]: 2 ± 0.2 ng/mL
- half-life [1, 11]: 1.9 h
- Tmax [1, 12]: 9 h
- increase in AUC on co-administration vs single treatment [3]: 282%
- increase in Cmax on co-administration vs single treatment [3]: 109%
- exposure (AUC) of metabolite as share of the exposure of BBR ([3]; TB-2+BBR treatments): 77% and 77.5%
- AUC ± SE [3, 14]: 932.5 ± 155.4 h ∗ ng/g
- AUC ± SE [3, 15]: 3565.3 ± 256.7^∗∗∗ h ∗ ng/g
- exposure (AUC) of metabolite as share of the exposure of BBR ([3]; single treatment (On TB-2 treatments)): 29% and 28.6%
- Cmax [3, 16]: 238 ± 39.5 ng/g
- half-life [3, 16]: 4.2 h
- Tmax [3, 16]: 6 h
- Cmax [3, 17]: 114 ± 10.6 ng/g
- half-life [3, 17]: 4.6 h
- Tmax [3, 17]: 4 h
- increase in AUC on co-administration vs single treatment ([4]; Wistar rats): 89%
- increase in Cmax on co-administration vs single treatment ([4]; Wistar rats): 105%
- AUC ratio between M1 and BBR ([4]; Wistar rats, BBR treatments): 28.1%
- AUC ratio between M1 and BBR [4, 8]: 24.9%
- AUC ([4]; 66.7 mg/kg): 55.7 ± 3.5 ng·h/mL
- Cmax ([4]; 66.7 mg/kg): 3.5 ± 1 ng/mL
- Tmax ([4]; 66.7 mg/kg): 6 h
- half-life ([4]; 66.7 mg/kg): 9.7 h
- AUC ([4]; 100 mg/kg): 106 ± 6.2 ng·h/mL
- Cmax ([4]; 100 mg/kg): 7.2 ± 1.5 ng/mL
- Tmax ([4]; 100 mg/kg): 9 h
- half-life ([4]; 100 mg/kg): 7 h
- levels of M1 as share of the parent drug ([5]; BBR treatments): 75%
- levels of M1 as share of the parent drug ([5]; TB-2+BBR treatments): 61%
- increase in AUC on combination vs single treatment [5]: didn’t significantly increase
- increase in Cmax on combination vs single treatment [5]: didn’t significantly increase
- Cmax [5, 18]: 6.6 ± 2 ng/mL
- half-life [5, 18]: 23.9 ± 7.4 h
- Tmax [5, 18]: 9.4 ± 1.2 h
- Cmax [5, 19]: 4.3 ± 1.7 ng/mL
- half-life [5, 19]: 100 ± 92.2 h
- Tmax [5, 19]: 10.4 ± 3.1 h
- AUC [5, 18]: 94.9 ± 26.4 ng·h/mL
- AUC [5, 19]: 56.3 ± 18.5 ng·h/mL
